Reference: patent US10898548B2, “Modulators of protein tyrosine phosphatase and uses thereof” (LEUVAS THERAPEUTICS, priority 2015, dated 2021)

Assays:
U87 GBM cells = assay: VYBRANT apoptosis, U87 GBM cells; assay type: cell-based; conditions: 0.5 μM
U251 GBM cells [1] = assay: VYBRANT DyeCycle Violet early apoptosis, U251 GBM cells; assay type: cell-based
Protocol: (§1) Cell viability and survival was measured using the MTT assay, a colorimetric assay for assessing cell metabolic activity set up under conditions where the absorption reflects the number of viable cells present (Table 21 and 22) and expressed as relative absorption at 570 nm. Early apoptosis was measured using VYBRANT DyeCycle Violet stain (Molecular Probes), a DNA-selective, cell membrane-permeant dye that can distinguish the compacted state of the nuclear chromatin in apoptotic cells as determined by flow cytometry and presented as the percent of cells that are apoptotic (Table 23 and 24). The actual number of cells following treatment with TAT-ICD or TAT alone (Table 25) was determined using flow cytometry compared to an input of 5,000 cells at time zero. To confirm apoptosis the TUNEL labeling assay, which detects DNA strand breaks in apoptotic cells by fluorescence microscopy, was also used to examine U251 cells treated with the PTPRG WD. Briefly, the assay used an optimized terminal transferase ([…]) to label 3′OH ends in genomic DNA with TMR-dUTP, thus allowing the measurement and quantification of cell death by apoptosis. U251 cells were pretreated for 1, 3 and 6 hours with 50 μM P1-WD. Then cells were fixed and permeabilized, incubated with TUNEL reaction mixture for 1 h at RT, and then stained with DAPI (for nuclei detection) and with Alexa670-Phalloidin (to detect actin in cell membranes). After the staining steps, cells were visualized with a confocal microscope.

DBTRG GBM cells = assay: VYBRANT early apoptosis, DBTRG GBM cells; assay type: cell-based, human; conditions: 0.5 μM
U251 GBM cells [2] = assay: cell number by flow cytometry, U251 GBM cells; assay type: cell-based; conditions: input 5000
Protocol: as §1

bEnd3 endothelial cells = assay: MTT assay, bEnd3 endothelial cells; assay type: cell-based
U251 GBM cells [3] = assay: MTT survival assay, U251 GBM cells; assay type: cell-based
Protocol: as §1, with “Briefly, U251 GBM cells, normal primary cortical murine neurons and a mixed culture of murine microglia and astrocytes were treated for 24, 48 and 72 hours with no treatment (control), delivery peptide (P1 or TAT) or increasing concentrations of P1-WD or TAT-ICD. Cell” for “Cell”

T98G GBM cells = assay: MTT survival assay, T98G GBM cells; assay type: cell-based, human
Protocol: The DBTRG-O5MG (Denver Brain Tumor Research Group 05) cell line was established from tissue from a patient with glioblastoma multiforme who had been treated with local brain irradiation and multi drug chemotherapy (Kruse C A, et al. 1992 In vitro Cell Dev Biol, 28A(9-10):609-14). U87 is a commonly studied and thoroughly characterized grade IV glioma cell line derived from malignant glioma (Clark M J, et al, 2010 Plos Genet. 6(1):e1000832.). T98G is a glioblastoma multiforme cell line extracted from a person (Stein G H, 1979, J. Cell Physiol, 99(1):43-54). Proliferation and survival were assessed following TAT-ICD or control peptide (Table 29) or the P1-WD or control peptide treatment using the MTT assay as described above. Data are relative absorption; mean and standard deviation.

U251 cells = assay: TUNEL labeling assay, U251 cells; assay type: cell-based; conditions: 50 μM P1-WD
Protocol: as §1, with “Briefly, U251 GBM cells, normal primary cortical murine neurons and a mixed culture of murine microglia and astrocytes were treated for 24, 48 and 72 hours with no treatment (control), delivery peptide (P1 or TAT) or increasing concentrations of P1-WD or TAT-ICD. Cell” for “Cell”
This finding was validated using the TUNEL in situ apoptosis cell death detection staining.

With “TAT-ICD: fusion recombinant protein SEQ ID 5: PTPRG intracellular domain aa 797-1445 fused to 13 aa TAT sequence” the “percent of apoptotic cells” value (U87 GBM cells; 1 hour, Control 10) was 67%, the “percent of apoptotic cells” value (U87 GBM cells; 3 hours, Control 3) was 60% and the “percent of apoptotic cells” value (U87 GBM cells; 6 hours, Control 14) was 70%. The “percent of apoptotic cells (early apoptosis)” value (from here on “percent … (early apoptosis)”) (U251 GBM cells [1]; TAT-ICD 0.5 uM, 6 hr, CTRL 4.6) was 2.6%, the “percent … (early apoptosis)” value (U251 GBM cells [1]; TAT-ICD 0.5 uM, 9 hr, CTRL 6.0) was 14.0% and the “percent … (early apoptosis)” value (U251 GBM cells [1]; TAT-ICD 0.5 uM, 24 hr, CTRL 7.0) was 21.0%. For the same substance, the “percent … (early apoptosis)” value (U251 GBM cells [1]; TAT-ICD 1 uM, 6 hr, CTRL 4.6) was 6.0%, the “percent … (early apoptosis)” value (U251 GBM cells [1]; TAT-ICD 1 uM, 9 hr, CTRL 6.0) was 17.0% and the “percent … (early apoptosis)” value (U251 GBM cells [1]; TAT-ICD 1 uM, 24 hr, CTRL 7.0) was 25.0%. For the same substance, the “percent … (early apoptosis)” value (U251 GBM cells [1]; TAT-ICD 2 uM, 6 hr, CTRL 4.6) was 15.0%, the “percent … (early apoptosis)” value (U251 GBM cells [1]; TAT-ICD 2 uM, 9 hr, CTRL 6.0) was 25.0% and the “percent … (early apoptosis)” value (U251 GBM cells [1]; TAT-ICD 2 uM, 24 hr, CTRL 7.0) was 30.0%. For the same substance, the “percent of apoptotic cells by flow cytometry” value (“percent … by flow cytometry” below) (DBTRG GBM cells; 1 h, Control 14) was 25%, the “percent … by flow cytometry” value (DBTRG GBM cells; 3 h, Control 16) was 40% and the “percent … by flow cytometry” value (DBTRG GBM cells; 6 h, Control 33) was 70%. For the same substance, the number of cells (U251 GBM cells [2]; TAT-ICD 0.5 μM, 6 hours, Control 5000) was 4676 cells per standard volume of medium, the number of cells (U251 GBM cells [2]; TAT-ICD 0.5 μM, 9 hours, Control 10000) was 5400 cells per standard volume of medium and the number of cells (U251 GBM cells [2]; TAT-ICD 0.5 μM, 24 hours, Control 10000) was 6094 cells per standard volume of medium. The number of cells (U251 GBM cells [2]; TAT-ICD 1 μM, 6 hours, Control 5000) was 2688 cells per standard volume of medium, the number of cells (U251 GBM cells [2]; TAT-ICD 1 μM, 9 hours, Control 10000) was 5434 cells per standard volume of medium and the number of cells (U251 GBM cells [2]; TAT-ICD 1 μM, 24 hours, Control 10000) was 5300 cells per standard volume of medium. The number of cells (U251 GBM cells [2]; TAT-ICD 2 μM, 6 hours, Control 5000) was 3943 cells per standard volume of medium, the number of cells (U251 GBM cells [2]; TAT-ICD 2 μM, 9 hours, Control 10000) was 3016 cells per standard volume of medium and the number of cells (U251 GBM cells [2]; TAT-ICD 2 μM, 24 hours, Control 10000) was 4500 cells per standard volume of medium. For the same substance, the “mean absorbance in the MTT assay” value (bEnd3 endothelial cells; 0.1 uM, 24 hours, CTRL 352) was 373, the “mean absorbance in the MTT assay” value (bEnd3 endothelial cells; 0.1 uM, 48 hours, CTRL 523) was 513 and the “mean absorbance in the MTT assay” value (bEnd3 endothelial cells; 0.25 uM, 24 hours, CTRL 352) was 378. For the same substance, the “mean absorbance in the MTT assay” value (bEnd3 endothelial cells; 0.25 uM, 48 hours, CTRL 523) was 579, the “mean absorbance in the MTT assay” value (bEnd3 endothelial cells; 0.5 uM, 24 hours, CTRL 352) was 393 and the “mean absorbance in the MTT assay” value (bEnd3 endothelial cells; 0.5 uM, 48 hours, CTRL 523) was 545. The “MTT relative absorption at 570 nM” value (U251 GBM cells [3]; TAT-ICD 0.5 uM, 24 hrs, Control 821) was 568, the “MTT relative absorption at 570 nM” value (U251 GBM cells [3]; TAT-ICD 0.5 uM, 48 hrs, Control 1943) was 969 and the “MTT relative absorption at 570 nM” value (U251 GBM cells [3]; TAT-ICD 0.5 uM, 72 hrs, Control 2556) was 1630. For the same substance, the “MTT relative absorption at 570 nM” value (U251 GBM cells [3]; TAT-ICD 1.0 uM, 24 hrs, Control 821) was 353, the “MTT relative absorption at 570 nM” value (U251 GBM cells [3]; TAT-ICD 1.0 uM, 48 hrs, Control 1943) was 526 and the “MTT relative absorption at 570 nM” value (U251 GBM cells [3]; TAT-ICD 1.0 uM, 72 hrs, Control 2556) was 830. For the same substance, the “MTT relative absorption at 570 nM” value (U251 GBM cells [3]; TAT-ICD 2.0 uM, 24 hrs, Control 821) was 244, the “MTT relative absorption at 570 nM” value (U251 GBM cells [3]; TAT-ICD 2.0 uM, 48 hrs, Control 1943) was 236 and the “MTT relative absorption at 570 nM” value (U251 GBM cells [3]; TAT-ICD 2.0 uM, 72 hrs, Control 2556) was 279. The “absorbance in the MTT assay” value (T98G GBM cells; TAT-ICD 0.5 μM, 24 hours, CTRL 971) was 921, the “absorbance in the MTT assay” value (T98G GBM cells; TAT-ICD 0.5 μM, 48 hours, CTRL 1305) was 1301 and the “absorbance in the MTT assay” value (T98G GBM cells; TAT-ICD 0.5 μM, 72 hours, CTRL 1481) was 1061. For the same substance, the “absorbance in the MTT assay” value (T98G GBM cells; TAT-ICD 1 μM, 24 hours, CTRL 971) was 745, the “absorbance in the MTT assay” value (T98G GBM cells; TAT-ICD 1 μM, 48 hours, CTRL 1305) was 947 and the “absorbance in the MTT assay” value (T98G GBM cells; TAT-ICD 1 μM, 72 hours, CTRL 1481) was 935. For the same substance, the “absorbance in the MTT assay” value (T98G GBM cells; TAT-ICD 2 μM, 24 hours, CTRL 971) was 552, the “absorbance in the MTT assay” value (T98G GBM cells; TAT-ICD 2 μM, 48 hours, CTRL 1305) was 687 and the “absorbance in the MTT assay” value (T98G GBM cells; TAT-ICD 2 μM, 72 hours, CTRL 1481) was 625.

“P1: Penetratin delivery peptide, 16 aa RQIKIWFQNRRMKWKK (SEQ ID 4), control [reference compound]” was tested, and the “percent … (early apoptosis)” value (U251 GBM cells [1]; P1 or P1-WD 50 μM, 6 h, Control 5) was 8%, the “percent … (early apoptosis)” value (U251 GBM cells [1]; P1 or P1-WD 50 μM, 9 h, Control 12) was 15% and the “percent … (early apoptosis)” value (U251 GBM cells [1]; P1 or P1-WD 50 μM, 24 h, Control 8) was 15%. For the same substance, the “DNA fragmentation, TUNEL staining” value (U251 cells) was “did not show fragmented DNA or cell loss”, the “MTT relative absorption at 570 nM” value (U251 GBM cells [3]; P1 or P1-WD 50 uM, 24 hours, control 821) was 600 and the “MTT relative absorption at 570 nM” value (U251 GBM cells [3]; P1 or P1-WD 50 uM, 48 hours, control 1943) was 1743. The “MTT relative absorption at 570 nM” value (U251 GBM cells [3]; P1 or P1-WD 50 uM, 72 hours, control 2556) was 2294, the “absorbance in the MTT assay” value (T98G GBM cells; P1 or P1-WD 50 μM, 24 hours, Control 971) was 1113 and the “absorbance in the MTT assay” value (T98G GBM cells; P1 or P1-WD 50 μM, 48 hours, Control 1305) was 1019. For the same substance, the “absorbance in the MTT assay” value (T98G GBM cells; P1 or P1-WD 50 μM, 72 hours, Control 1481) was 1111.
